Experimental data: paper PMC5218480 (PLoS ONE, 2017)

Test system: MV-4-11 cells
Assay: Gene expression microarray analysis (Affymetrix PrimeView) and GSEA
Type: cell-based, human
Design: RFU PODN (11730768_x_at) / Fold change /veh PODN (11730768_x_at) / RFU LINC00158 (11744669_a_at) / Fold change /veh LINC00158 (11744669_a_at) / RFU DUSP10 (11751237_a_at) / Fold change /veh DUSP10 (11751237_a_at) / RFU ID3 (11757404_x_at) / Fold change /veh ID3 (11757404_x_at) / RFU PLEKHG5 (11737974_s_at) / Fold change /veh PLEKHG5 (11737974_s_at) / RFU LRRC4B (11730491_at) / Fold change /veh LRRC4B (11730491_at) / RFU GIMAP4 (11747438_a_at) / Fold change /veh GIMAP4 (11747438_a_at) / RFU KRT8 (11758183_x_at) / Fold change /veh KRT8 (11758183_x_at) / RFU CNN1 (11734310_a_at) / Fold change /veh CNN1 (11734310_a_at) / RFU VPS37D (11726825_at) / Fold change /veh VPS37D (11726825_at) / RFU C10orf10 (11716522_x_at) / Fold change /veh C10orf10 (11716522_x_at) / RFU KIR2DL2 /// KIR2DL4 /// KIR2DL5A /// KIR2DL5B /// KIR2DS1 /// KIR2DS2 /// KIR2DS3 /// KIR2DS4 /// KIR3DL3 /// KIR3DL3 /// KIR3DS1 (11738374_at) / Fold change /veh KIR2DL2 /// KIR2DL4 /// KIR2DL5A /// KIR2DL5B /// KIR2DS1 /// KIR2DS2 /// KIR2DS3 /// KIR2DS4 /// KIR3DL3 /// KIR3DL3 /// KIR3DS1 (11738374_at) / RFU C1QL1 (11718748_at) / Fold change /veh C1QL1 (11718748_at) / RFU TMPRSS4 (11747572_a_at) / Fold change /veh TMPRSS4 (11747572_a_at) / RFU HAMP (11756126_x_at) / Fold change /veh HAMP (11756126_x_at) / RFU RNFT2 (11725882_a_at) / Fold change /veh RNFT2 (11725882_a_at) / RFU NR4A2 (11747474_a_at) / Fold change /veh NR4A2 (11747474_a_at) / RFU ABCC12 (11746883_a_at) / Fold change /veh ABCC12 (11746883_a_at) / RFU TMEM136 (11760407_x_at) / Fold change /veh TMEM136 (11760407_x_at) / RFU CLDN22 /// WWC2 (11732394_at) / Fold change /veh CLDN22 /// WWC2 (11732394_at) / RFU HLA-DPB1 (11760878_x_at) / Fold change /veh HLA-DPB1 (11760878_x_at) / RFU SPINT1 (11716480_a_at) / Fold change /veh SPINT1 (11716480_a_at) / RFU GAP43 (11754022_s_at) / Fold change /veh GAP43 (11754022_s_at) / RFU A4GNT (11735810_at) / Fold change /veh A4GNT (11735810_at) / RFU PRB3 (11715151_x_at) / Fold change /veh PRB3 (11715151_x_at) / RFU TUBB4B (11761932_at) / Fold change /veh TUBB4B (11761932_at) / RFU CAPN14 (11732068_a_at) / Fold change /veh CAPN14 (11732068_a_at) / RFU TMCC2 (11721928_a_at) / Fold change /veh TMCC2 (11721928_a_at) / RFU IRGQ (11745062_a_at) / Fold change /veh IRGQ (11745062_a_at) / RFU FAM174B (11720279_a_at) / Fold change /veh FAM174B (11720279_a_at) / RFU TMPRSS4 (11748680_a_at) / Fold change /veh TMPRSS4 (11748680_a_at) / RFU FAM212B (11763350_a_at) / Fold change /veh FAM212B (11763350_a_at) / RFU PLEKHG5 (11743358_a_at) / Fold change /veh PLEKHG5 (11743358_a_at) / RFU ZSCAN30 (11745921_a_at) / Fold change /veh ZSCAN30 (11745921_a_at) / RFU CMKLR1 (11741424_a_at) / Fold change /veh CMKLR1 (11741424_a_at) / RFU LOC101060620 /// MAPK8IP1 (11723275_at) / Fold change /veh LOC101060620 /// MAPK8IP1 (11723275_at) / RFU SPTSSB (11747773_x_at) / Fold change /veh SPTSSB (11747773_x_at) / RFU PRSS12 (11739890_at) / Fold change /veh PRSS12 (11739890_at) / RFU BIN1 (11741810_x_at) / Fold change /veh BIN1 (11741810_x_at) / RFU WNT11 (11732464_a_at) / Fold change /veh WNT11 (11732464_a_at) / RFU C10orf10 (11716521_a_at) / Fold change /veh C10orf10 (11716521_a_at) / RFU C5orf56 (11738089_at) / Fold change /veh C5orf56 (11738089_at) / RFU CYB561 (11721691_x_at) / Fold change /veh CYB561 (11721691_x_at) / RFU ANKRD19P (11752326_a_at) / Fold change /veh ANKRD19P (11752326_a_at) / RFU OR2T12 /// OR2T33 /// OR2T8 (11738714_s_at) / Fold change /veh OR2T12 /// OR2T33 /// OR2T8 (11738714_s_at) / RFU VCAN (11748164_a_at) / Fold change /veh VCAN (11748164_a_at) / RFU JSRP1 (11732532_at) / Fold change /veh JSRP1 (11732532_at) / RFU KRTAP10-11 (11738290_x_at) / Fold change /veh KRTAP10-11 (11738290_x_at) / RFU MYO3A (11730013_a_at) / Fold change /veh MYO3A (11730013_a_at) / RFU EBF3 (11725865_a_at) / Fold change /veh EBF3 (11725865_a_at) / RFU CAMK2N1 (11719241_x_at) / Fold change /veh CAMK2N1 (11719241_x_at) / RFU C5orf56 (11738088_a_at) / Fold change /veh C5orf56 (11738088_a_at) / RFU OLFML3 (11715873_a_at) / Fold change /veh OLFML3 (11715873_a_at) / RFU LOC100653217 /// NTM (11731650_a_at) / Fold change /veh LOC100653217 /// NTM (11731650_a_at) / RFU MAPK11 (11762145_a_at) / Fold change /veh MAPK11 (11762145_a_at) / RFU FIZ1 (11724087_x_at) / Fold change /veh FIZ1 (11724087_x_at) / RFU OASL (11726364_x_at) / Fold change /veh OASL (11726364_x_at) / RFU SOX15 (11748057_x_at) / Fold change /veh SOX15 (11748057_x_at) / RFU CD79A (11719716_a_at) / Fold change /veh CD79A (11719716_a_at) / RFU HIST1H1D (11736915_at) / Fold change /veh HIST1H1D (11736915_at) / RFU CASKIN2 (11723855_a_at) / Fold change /veh CASKIN2 (11723855_a_at) / RFU LOC730098 (11760151_x_at) / Fold change /veh LOC730098 (11760151_x_at) / RFU OR4N2 (11742367_at) / Fold change /veh OR4N2 (11742367_at) / RFU PRRT2 (11749266_a_at) / Fold change /veh PRRT2 (11749266_a_at) / RFU SNX32 (11753110_a_at) / Fold change /veh SNX32 (11753110_a_at) / RFU CDHR5 (11726645_a_at) / Fold change /veh CDHR5 (11726645_a_at) / RFU RCAN1 (11760418_a_at) / Fold change /veh RCAN1 (11760418_a_at) / RFU FAM167A (11723789_a_at) / Fold change /veh FAM167A (11723789_a_at) / RFU FAM26E (11764081_at) / Fold change /veh FAM26E (11764081_at) / RFU ISYNA1 (11749810_s_at) / Fold change /veh ISYNA1 (11749810_s_at) / RFU ACY1 (11761880_at) / Fold change /veh ACY1 (11761880_at) / RFU 11764098_at / Fold change /veh 11764098_at / RFU SAMD14 (11745864_x_at) / Fold change /veh SAMD14 (11745864_x_at) / RFU NPB (11741838_a_at) / Fold change /veh NPB (11741838_a_at) / RFU TMPRSS6 (11731388_a_at) / Fold change /veh TMPRSS6 (11731388_a_at) / RFU KRTAP10-2 (11738614_at) / Fold change /veh KRTAP10-2 (11738614_at) / RFU ARHGAP8 /// PRR5-ARHGAP8 (11727945_x_at) / Fold change /veh ARHGAP8 /// PRR5-ARHGAP8 (11727945_x_at) / RFU KRTAP5-7 /// NADSYN1 (11734609_at) / Fold change /veh KRTAP5-7 /// NADSYN1 (11734609_at) / RFU RASL12 (11751679_a_at) / Fold change /veh RASL12 (11751679_a_at) / RFU CDKN2B (11736163_a_at) / Fold change /veh CDKN2B (11736163_a_at) / RFU PRF1 (11729649_at) / Fold change /veh PRF1 (11729649_at) / RFU, ZNF638 /// ZNF638-IT1 / Fold change vs veh, ZNF638 /// ZNF638-IT1 / RFU, PANK3 / Fold change vs veh, PANK3 / RFU, SH3YL1 / Fold change vs veh, SH3YL1 / RFU, ZEB2 / Fold change vs veh, ZEB2 / RFU, NRIP1 / Fold change vs veh, NRIP1 / RFU, PTTG1IP / Fold change vs veh, PTTG1IP / RFU, CAPN2 / Fold change vs veh, CAPN2 / RFU, MED14 / Fold change vs veh, MED14 / RFU, SNORA58 / Fold change vs veh, SNORA58 / RFU, C1orf63 / Fold change vs veh, C1orf63 / RFU, LRRFIP1 / Fold change vs veh, LRRFIP1 / RFU, NDUFAF7 / Fold change vs veh, NDUFAF7 / RFU, SLC12A2 / Fold change vs veh, SLC12A2 / RFU, IBTK / Fold change vs veh, IBTK / RFU, ESF1 / Fold change vs veh, ESF1 / Fold change vs veh, TMEM50B / RFU, TAOK1 / Fold change vs veh, TAOK1 / RFU, ACBD3 / Fold change vs veh, ACBD3 / RFU, TMA16 / Fold change vs veh, TMA16 / RFU, RWDD3 / Fold change vs veh, RWDD3 / RFU, BCAT1 / Fold change vs veh, BCAT1 / RFU, EDEM3 / Fold change vs veh, EDEM3 / RFU, TMEM33 / Fold change vs veh, TMEM33 / RFU, WDR75 / Fold change vs veh, WDR75 / RFU, AHCTF1 / Fold change vs veh, AHCTF1 / RFU, TFRC / Fold change vs veh, TFRC / RFU, ZDHHC17 / Fold change vs veh, ZDHHC17 / RFU, NOM1 / Fold change vs veh, NOM1 / RFU, ARL8B / Fold change vs veh, ARL8B / RFU, ZBTB11 / Fold change vs veh, ZBTB11 / RFU, TAMM41 / Fold change vs veh, TAMM41 / RFU, KIAA1704 /// LOC100996395 / Fold change vs veh, KIAA1704 /// LOC100996395 / RFU, ING1 / Fold change vs veh, ING1 / RFU, TRMT61B / Fold change vs veh, TRMT61B / RFU, FUBP3 / Fold change vs veh, FUBP3 / RFU, TP53 / Fold change vs veh, TP53 / RFU, TNKS2 / Fold change vs veh, TNKS2 / RFU, ZFP14 / Fold change vs veh, ZFP14 / RFU, ACTR2 / Fold change vs veh, ACTR2 / RFU, PPP3R1 / Fold change vs veh, PPP3R1 / RFU, PIK3R1 / Fold change vs veh, PIK3R1 / RFU, HNRNPA1 / Fold change vs veh, HNRNPA1 / RFU, RNF170 / Fold change vs veh, RNF170 / RFU, ZNF28 / Fold change vs veh, ZNF28 / RFU, RNGTT / Fold change vs veh, RNGTT / RFU, OGT / Fold change vs veh, OGT / RFU, BRD1 / Fold change vs veh, BRD1 / RFU, MARS / Fold change vs veh, MARS / RFU, ZNF655 / Fold change vs veh, ZNF655 / RFU, FAHD1 / Fold change vs veh, FAHD1 / RFU, BDP1 / Fold change vs veh, BDP1 / RFU, LRRCC1 / Fold change vs veh, LRRCC1 / RFU, ARID1A / Fold change vs veh, ARID1A / RFU, ZNF146 / Fold change vs veh, ZNF146 / RFU, ZNF330 / Fold change vs veh, ZNF330 / RFU, GPN3 / Fold change vs veh, GPN3 / RFU, C9orf123 / Fold change vs veh, C9orf123 / RFU, N4BP2L2 / Fold change vs veh, N4BP2L2 / RFU, ARFIP1 / Fold change vs veh, ARFIP1 / RFU, FAM179B / Fold change vs veh, FAM179B / RFU, BCL10 / Fold change vs veh, BCL10 / RFU, UHRF1BP1L / Fold change vs veh, UHRF1BP1L / RFU, BET1 / Fold change vs veh, BET1 / RFU, CNOT2 / Fold change vs veh, CNOT2 / RFU, ZNF268 / Fold change vs veh, ZNF268 / Fold change vs veh, ZNF507 / RFU, DGCR2 / Fold change vs veh, DGCR2 / RFU, WDSUB1 / Fold change vs veh, WDSUB1 / Fold change vs veh, HSP90B1 /// MIR3652 / RFU, ADSS / Fold change vs veh, ADSS / RFU, GK / Fold change vs veh, GK / RFU, ZNF148 / Fold change vs veh, ZNF148 / RFU, TAF9 / Fold change vs veh, TAF9 / RFU, SLC1A5 / Fold change vs veh, SLC1A5 / RFU, SLMO2 / Fold change vs veh, SLMO2 / RFU, ABCC4 / Fold change vs veh, ABCC4 / RFU, LOC101060439 /// RAP1B / Fold change vs veh, LOC101060439 /// RAP1B / RFU, RFX7 / Fold change vs veh, RFX7 / RFU, GTPBP10 / Fold change vs veh, GTPBP10 / RFU, CNEP1R1 / Fold change vs veh, CNEP1R1 / RFU, BIVM-ERCC5 /// ERCC5 / Fold change vs veh, BIVM-ERCC5 /// ERCC5 / RFU, ILF3 / Fold change vs veh, ILF3 / RFU 11762660_at / Fold change /veh 11762660_at / RFU VCAN (11757783_s_at) / Fold change /veh VCAN (11757783_s_at) / RFU DDX43 (11728927_at) / Fold change /veh DDX43 (11728927_at) / RFU KRT8 (11758188_x_at) / Fold change /veh KRT8 (11758188_x_at) / RFU NKD1 (11759106_at) / Fold change /veh NKD1 (11759106_at) / RFU SRD5A1 (11742802_a_at) / Fold change /veh SRD5A1 (11742802_a_at) / RFU TPSAB1 /// TPSB2 (11721975_s_at) / Fold change /veh TPSAB1 /// TPSB2 (11721975_s_at) / RFU GSTM3 (11746129_a_at) / Fold change /veh GSTM3 (11746129_a_at) / RFU IL23R (11737362_x_at) / Fold change /veh IL23R (11737362_x_at) / RFU TMEM51 (11727254_a_at) / Fold change /veh TMEM51 (11727254_a_at) / RFU PIWIL2 (11732686_x_at) / Fold change /veh PIWIL2 (11732686_x_at) / RFU ORM1 (11744905_x_at) / Fold change /veh ORM1 (11744905_x_at) / RFU CCDC152 (11743942_at) / Fold change /veh CCDC152 (11743942_at) / RFU ECM1 (11717891_a_at) / Fold change /veh ECM1 (11717891_a_at) / RFU IL23R (11748794_a_at) / Fold change /veh IL23R (11748794_a_at) / RFU TNFAIP8L3 (11732012_x_at) / Fold change /veh TNFAIP8L3 (11732012_x_at) / RFU MBOAT4 (11741988_at) / Fold change /veh MBOAT4 (11741988_at) / RFU 11764193_at / Fold change /veh 11764193_at / RFU TMEM53 (11763286_at) / Fold change /veh TMEM53 (11763286_at) / RFU MAGEB2 (11727129_at) / Fold change /veh MAGEB2 (11727129_at) / RFU TMEM200A (11744735_a_at) / Fold change /veh TMEM200A (11744735_a_at) / RFU CCDC152 (11751479_a_at) / Fold change /veh CCDC152 (11751479_a_at) / RFU FAM211A (11726209_a_at) / Fold change /veh FAM211A (11726209_a_at) / RFU RGS16 (11746705_a_at) / Fold change /veh RGS16 (11746705_a_at) / RFU VCAN (11755009_s_at) / Fold change /veh VCAN (11755009_s_at) / RFU RHOB (11743442_s_at) / Fold change /veh RHOB (11743442_s_at) / RFU RGS16 (11720943_a_at) / Fold change /veh RGS16 (11720943_a_at) / RFU RGS16 (11720944_at) / Fold change /veh RGS16 (11720944_at) / RFU, VPS4B / Fold change vs veh, VPS4B / RFU, CREB1 / Fold change vs veh, CREB1 / RFU, DNAJC13 / Fold change vs veh, DNAJC13 / RFU, GNAQ / Fold change vs veh, GNAQ / RFU, CDK5R1 / Fold change vs veh, CDK5R1 / RFU, ZRANB3 / Fold change vs veh, ZRANB3 / RFU, CUL4A / Fold change vs veh, CUL4A / RFU, CCNY / Fold change vs veh, CCNY / RFU, UFL1 / Fold change vs veh, UFL1 / RFU, COG3 / Fold change vs veh, COG3 / RFU, DIAPH2 / Fold change vs veh, DIAPH2 / RFU, SKA2 / Fold change vs veh, SKA2 / RFU, AFF3 / Fold change vs veh, AFF3 / RFU, LMF1 / Fold change vs veh, LMF1 / RFU, IPO11 / Fold change vs veh, IPO11 / RFU, DFFB / Fold change vs veh, DFFB / RFU, FOXP1 / Fold change vs veh, FOXP1 / RFU, CARD8 / Fold change vs veh, CARD8 / RFU, STRN3 / Fold change vs veh, STRN3 / RFU, ADK / Fold change vs veh, ADK / RFU, RASSF2 / Fold change vs veh, RASSF2 / RFU, WIPF1 / Fold change vs veh, WIPF1 / RFU, LARP1B / Fold change vs veh, LARP1B / RFU, RASA1 / Fold change vs veh, RASA1 / RFU, RB1 / Fold change vs veh, RB1 / RFU, PPFIA1 / Fold change vs veh, PPFIA1 / RFU, MAT2A / Fold change vs veh, MAT2A / RFU, CCT5 / Fold change vs veh, CCT5 / RFU, WDR92 / Fold change vs veh, WDR92 / RFU, CUX1 / Fold change vs veh, CUX1 / RFU, TTC7A / Fold change vs veh, TTC7A / RFU, TMEM135 / Fold change vs veh, TMEM135 / RFU, DEPTOR / Fold change vs veh, DEPTOR / RFU, CPM / Fold change vs veh, CPM / RFU, DNAJB6 / Fold change vs veh, DNAJB6 / RFU, CACNA2D3 / Fold change vs veh, CACNA2D3 / RFU, DTX4 / Fold change vs veh, DTX4 / RFU, TFCP2 / Fold change vs veh, TFCP2 / RFU, GMCL1 /// GMCL1P1 / Fold change vs veh, GMCL1 /// GMCL1P1 / RFU, AEBP2 / Fold change vs veh, AEBP2 / RFU, SNHG1 /// SNORD22 /// SNORD25 /// SNORD26 /// SNORD27 /// SNORD28 /// SNORD29 /// SNORD31 / Fold change vs veh, SNHG1 /// SNORD22 /// SNORD25 /// SNORD26 /// SNORD27 /// SNORD28 /// SNORD29 /// SNORD31 / Fold change (Aza/veh), C12orf56 (ProbeSet 11735607_a_at) / Fold change (ACY-1035/veh), C12orf56 (ProbeSet 11735607_a_at) / Fold change (Aza/veh), FGFR1OP (ProbeSet 11751329_s_at) / Fold change (ACY-1035/veh), FGFR1OP (ProbeSet 11751329_s_at) / Fold change (Aza/veh), VPS36 (ProbeSet 11739960_a_at) / Fold change (ACY-1035/veh), VPS36 (ProbeSet 11739960_a_at) / RFU SYPL1 (11715823_x_at) / Fold change /veh SYPL1 (11715823_x_at) / RFU IGFBP7 (11715501_s_at) / Fold change /veh IGFBP7 (11715501_s_at) / RFU REEP3 (11722064_at) / Fold change /veh REEP3 (11722064_at) / RFU IGLL1 (11728026_x_at) / Fold change /veh IGLL1 (11728026_x_at): dose or concentration left out as unconfirmed
Conditions: MV-4-11 cells, 48 hours

## Nc1ccc(-c2cccs2)cc1NC(=O)c1ccc2c(c1)cc(C1CC1)n2CCN1CCOCC1 [ACY-1035]
  RFU KRTAP5-7 /// NADSYN1 (11734609_at): 11.39 RFU
